Consider 36 compounds from patent US20050197350A1, “Novel quinoline, tetrahydroquinazoline, and pyrimidine derivatives and methods of treatment related to the use thereof” (TAISHO PHARMACEUTICAL CO., LTD., priority 2003, published 2005).

The subject of one test is MCH receptors. Briefly: MCH receptor activity class (method not given). The following applies: MCH receptor; class by percent of control at 10^-7 M or IC50.
In the case of `CCCCc1ccc(NC(=O)N[C@H]2CC[C@@H](Nc3nc4c(c(N(C)C)n3)CCCC4)CC2)cc1` [compound 1897], the class is 3 (Class 3 The value of percent of control at 10^−7 M was more than 60% or the value of IC50 was more than 200 nM.).

The test is the same for the next values; noted with them: activity class 1-3: percent of control at 10^-7 M or IC50.
Consider `CC(NC(=O)NC1CCC(Nc2nc3c(c(N(C)C)n2)CCCC3)CC1)c1ccccc1` (stereo not drawn) [compound 1707], for which the class was 3 (Class 3 The value of percent of control at 10^−7 M was more than 60% or the value of IC50 was more than 200 nM.). Consider `COc1cc(COC(=O)NC2CCC(Nc3nc4c(c(N(C)C)n3)CCCC4)CC2)c([N+](=O)[O-])cc1OC` (stereo not drawn) [compound 1581, [4-(4-Dimethylamino-5,6,7,8-tetrahydro-quinazolin-2-ylamino)-cyclohexy]-carbamic acid 4,5-dimethoxy-2-nitro-benzyl ester], for which the class is 2 (Class 2: The value of percent of control at 10^−7 M was from 40% to 60% or the value of IC′50 was from 50 nM to 200 nM.). Same read-out and setting: in the case of `CCCCCNC(=O)N[C@H]1CC[C@@H](Nc2nc3c(c(N(C)C)n2)CCCC3)CC1` [compound 1703] it was 3 (Class 3 The value of percent of control at 10^−7 M was more than 60% or the value of IC50 was more than 200 nM.); in that of `CN(C)c1cc(N[C@H]2CC[C@@H](CNC(=O)OCC(C)(C)C)CC2)nc2ccccc12` [compound 1560], 3 (Class 3 The value of percent of control at 10^−7 M was more than 60% or the value of IC50 was more than 200 nM.). As for `CN(C)c1ccnc(N[C@H]2CC[C@@H](CNC(=O)Oc3ccccc3)CC2)n1` [compound 1652], the class is reported as 3 (Class 3 The value of percent of control at 10^−7 M was more than 60% or the value of IC50 was more than 200 nM.).

Staying with this test, now noted: activity class per percent of control at 10^-7 M or IC50.
Take `Cc1ccc2occ(CN[C@H]3CC[C@@H](Nc4cc(N(C)C)c5ccccc5n4)CC3)c(=O)c2c1` [compound 1107]: the class is 3 (Class 3 The value of percent of control at 10^−7 M was more than 60% or the value of IC50 was more than 200 nM.). Take `CN(C)c1nc(N[C@H]2CC[C@@H](CNC(=O)c3ccccc3Cc3ccccc3)CC2)nc2c1CCCC2` [compound 1072]: the class is 3 (Class 3 The value of percent of control at 10^−7 M was more than 60% or the value of IC50 was more than 200 nM.).

Still in this test, the particulars now being: class 1-3 by percent of control at 10^-7 M or IC50.
Regarding `CN(C)c1nc(N[C@H]2CC[C@@H](NC(=O)CCc3ccccc3)CC2)nc2c1CCCC2` [compound 563], the class is 3 (Class 3 The value of percent of control at 10^−7 M was more than 60% or the value of IC50 was more than 200 nM.). For `CN(C)c1nc(N[C@H]2CC[C@@H](NC(=O)COc3cccc(Cl)c3)CC2)nc2c1CCCC2` [compound 569], the class is on record as 1 (Class 1: The value of percent of control at 10^−7 M was less than 40% or the value of IC50 was less than 50 nM.). The same measure, in the same setting: in the case of `CN(C)c1nc(N[C@H]2CC[C@@H](CNC(=O)c3cccc(C#N)c3)CC2)nc2c1CCCC2` [compound 591] it was 3 (Class 3 The value of percent of control at 10^−7 M was more than 60% or the value of IC50 was more than 200 nM.); in that of `Cc1cc(C(=O)N[C@H]2CC[C@@H](Nc3nc4c(c(N(C)C)n3)CCCC4)CC2)c(C)o1` [compound 507], 1 (Class 1: The value of percent of control at 10^−7 M was less than 40% or the value of IC50 was less than 50 nM.). The same measure, in the same setting: the figure for `CN(C)c1nc(N[C@H]2CC[C@@H](NC(=O)COc3ccccc3)CC2)nc2c1CCCC2` [compound 548] is 1 (Class 1: The value of percent of control at 10^−7 M was less than 40% or the value of IC50 was less than 50 nM.).

Still in this test, the particulars now being: class by percent of control at 10^-7 M or IC50.
Regarding `COc1cc(CC(=O)N[C@H]2CC[C@@H](Nc3nc4c(c(N(C)C)n3)CCCC4)CC2)cc(OC)c1O` [compound 976], the class is 1 (Class 1: The value of percent of control at 10^−7 M was less than 40% or the value of IC50 was less than 50 nM.). On to `CN(C)c1cc(N[C@H]2CC[C@@H](NC(=O)CCCc3ccc([N+](=O)[O-])cc3)CC2)nc2ccccc12` [compound 725], for which the class is 3 (Class 3 The value of percent of control at 10^−7 M was more than 60% or the value of IC50 was more than 200 nM.). On to `CN(C)c1cc(N[C@H]2CC[C@@H](NC(=O)C(CC(=O)c3ccccc3)c3c[nH]c4ccccc34)CC2)nc2ccccc12` (relative stereo) [compound 716, N-(cis-4-{[4-(dimethylamino)quinolin-2-yl]amino}cyclohexyl)-2-(1H-indol-3-yl)-4-oxo-4-phenylbutanamide], for which the class is 2 (Class 2: The value of percent of control at 10^−7 M was from 40% to 60% or the value of IC′50 was from 50 nM to 200 nM.). On to `COc1cc(OC)c(OC)cc1CNC[C@H]1CC[C@@H](Nc2nc3c(c(N(C)C)n2)CCCC3)CC1` [compound 1417], for which the class is 1 (Class 1: The value of percent of control at 10^−7 M was less than 40% or the value of IC50 was less than 50 nM.).

On to `Cc1ccc(CNC[C@H]2CC[C@@H](Nc3nc4c(c(N(C)C)n3)CCCC4)CC2)cc1I` [compound 1508], for which the class is on record as 3 (Class 3 The value of percent of control at 10^−7 M was more than 60% or the value of IC50 was more than 200 nM.). On to `CN(C)c1cc(N[C@H]2CC[C@@H](NC(=O)Nc3ccc(Br)cc3Br)CC2)nc2ccccc12` [compound 2139], for which the class is on record as 3 (Class 3 The value of percent of control at 10^−7 M was more than 60% or the value of IC50 was more than 200 nM.). Turning to `CN(C)c1cc(N[C@H]2CC[C@@H](CNCc3c(F)c(F)cc(F)c3F)CC2)nc2ccccc12` [compound 1472], the class is 3 (Class 3 The value of percent of control at 10^−7 M was more than 60% or the value of IC50 was more than 200 nM.). As for `CN(C)c1ccnc(N[C@H]2CC[C@@H](NC(=O)c3ccccc3Oc3ccccc3)CC2)n1` [compound 893, N-(cis-4-{[4-(dimethylamino)pyrimidin-2-yl]amino}cyclohexyl)-2-phenoxybenzamide], the class was 2 (Class 2: The value of percent of control at 10^−7 M was from 40% to 60% or the value of IC′50 was from 50 nM to 200 nM.). In the case of `CN(C)c1ccnc(N[C@H]2CC[C@@H](CNC(=O)c3cc(F)c(Cl)cc3Cl)CC2)n1` [compound 384], the class is listed as 2 (Class 2: The value of percent of control at 10^−7 M was from 40% to 60% or the value of IC′50 was from 50 nM to 200 nM.).

As to `COc1ccc(CNC[C@H]2CC[C@@H](Nc3cc(N(C)C)c4ccccc4n3)CC2)c(OC)c1C` [compound 1167], the class is 3 (Class 3 The value of percent of control at 10^−7 M was more than 60% or the value of IC50 was more than 200 nM.).

For the compound `CN(C)c1ccnc(N[C@H]2CC[C@@H](NC(=O)c3cc(Cl)ccc3O)CC2)n1` [compound 919], the class was 3 (Class 3 The value of percent of control at 10^−7 M was more than 60% or the value of IC50 was more than 200 nM.).

As to `CSc1ccccc1NC(=O)N[C@H]1CC[C@@H](Nc2nc3c(c(N(C)C)n2)CCCC3)CC1` [compound 1845], the class is listed as 3 (Class 3 The value of percent of control at 10^−7 M was more than 60% or the value of IC50 was more than 200 nM.). With `COc1cccc(CNC[C@H]2CC[C@@H](Nc3nccc(N(C)C)n3)CC2)c1OC` [compound 1297], the class is 3 (Class 3 The value of percent of control at 10^−7 M was more than 60% or the value of IC50 was more than 200 nM.). For the compound `Cc1ccc(-c2ccc(C(=O)N[C@H]3CC[C@@H](Nc4nc5c(c(N(C)C)n4)CCCC5)CC3)o2)c([N+](=O)[O-])c1` [compound 963], the class is given as 2 (Class 2: The value of percent of control at 10^−7 M was from 40% to 60% or the value of IC′50 was from 50 nM to 200 nM.). Same read-out and setting: in the case of `Cc1cccc(Cl)c1NC(=O)N[C@H]1CC[C@@H](Nc2nccc(N(C)C)n2)CC1` [compound 2194] it was 3 (Class 3 The value of percent of control at 10^−7 M was more than 60% or the value of IC50 was more than 200 nM.); in that of `Cc1cc(C(=O)NC[C@H]2CC[C@@H](Nc3cc(N(C)C)c4ccccc4n3)CC2)nn1C(C)(C)C` [compound 217], 3 (Class 3 The value of percent of control at 10^−7 M was more than 60% or the value of IC50 was more than 200 nM.).

As for `CN(C)c1nc(N[C@H]2CC[C@@H](CNCCCOc3ccccc3)CC2)nc2c1CCCC2` [compound 1505], the class is recorded as 3 (Class 3 The value of percent of control at 10^−7 M was more than 60% or the value of IC50 was more than 200 nM.).

For the compound `Cc1ccccc1CNC(=O)N[C@H]1CC[C@@H](Nc2nc3c(c(N(C)C)n2)CCCC3)CC1` [compound 1716], the class is 3 (Class 3 The value of percent of control at 10^−7 M was more than 60% or the value of IC50 was more than 200 nM.).

As to `CN(C)c1nc(N[C@H]2CC[C@@H](NC(=O)NC34CC5CC(CC(C5)C3)C4)CC2)nc2c1CCCC2` (relative stereo) [compound 1807], the class is on record as 3 (Class 3 The value of percent of control at 10^−7 M was more than 60% or the value of IC50 was more than 200 nM.).

For `COc1cc(CNC[C@H]2CC[C@@H](Nc3cc(N(C)C)c4ccccc4n3)CC2)cc(F)c1O` [compound 1199], the class is 3 (Class 3 The value of percent of control at 10^−7 M was more than 60% or the value of IC50 was more than 200 nM.).

The same test, now with this note: class by percent of control at 10^−7 M or IC50.
On to `Cc1cnc(N[C@H]2CC[C@@H](CNC(=O)c3ccc(-c4ccccc4)cc3)CC2)nc1N(C)C` [compound 2709], for which the class is recorded as 3 (Class 3 The value of percent of control at 10^−7 M was more than 60% or the value of IC50 was more than 200 nM.).

Consider `Cc1cc(C(=O)N[C@H]2CC[C@@H](Nc3ncc(C)c(N(C)C)n3)CC2)ccc1F` [compound 2923, N-(cis-4-{[4-(dimethylamino)-5-methylpyrimidin-2-yl]amino}cyclohexyl)-4-fluoro-3-methylbenzamide], for which the class is given as 1 (Class 1: The value of percent of control at 10^−7 M was less than 40% or the value of IC50 was less than 50 nM.). On to `Cc1cnc(N[C@H]2CC[C@@H](NC(=O)COc3cccc(Cl)c3)CC2)nc1N(C)C` [compound 2879, 2-(3-chlorophenoxy)-N-(cis-4-{[4-(dimethylamino)-5-methylpyrimidin-2-yl]amino}cyclohexyl)acetamide], for which the class is 1 (Class 1: The value of percent of control at 10^−7 M was less than 40% or the value of IC50 was less than 50 nM.).
